For one series, the target named is T1, glucagon receptor (Homo sapiens, UniProt P47871).
T1 construct: expressed in transfected cells
The series can be described thus: Assay (I) Glucagon activity (cAMP biosensor, FLIPR). The series is classed as cell-based.

A short description of series [1]: Assay (X) Chemical stability assessment by RP-UPLC. The series is classed as physicochemical. The conditions noted are these: pH 8.15, 14 days at 37° C. vs 5° C., 333 μM.

This is an account of results in patent US9486506B2 (Novo Nordisk A/S, priority 2011, dated 2016).

Numbered stars: 1 amine (or outer) side, 2 acyl side, 3 side chain; on linkers, the order of the positions; unused ones are H or OH. Side chains are listed from the residue outwards. Peptide text beside a SMILES is read from it. * marks the point of attachment. C18 diacid = O=C(O)CCCCCCCCCCCCCCCCC(=O)*; C16 diacid = O=C(O)CCCCCCCCCCCCCCC(=O)*; γGlu = O=C(O)[C@H](CCC(=O)[*:2])N[*:1]; AEEA = NCCOCCOCC(=O)O

T1 sequence (P47871 26-477): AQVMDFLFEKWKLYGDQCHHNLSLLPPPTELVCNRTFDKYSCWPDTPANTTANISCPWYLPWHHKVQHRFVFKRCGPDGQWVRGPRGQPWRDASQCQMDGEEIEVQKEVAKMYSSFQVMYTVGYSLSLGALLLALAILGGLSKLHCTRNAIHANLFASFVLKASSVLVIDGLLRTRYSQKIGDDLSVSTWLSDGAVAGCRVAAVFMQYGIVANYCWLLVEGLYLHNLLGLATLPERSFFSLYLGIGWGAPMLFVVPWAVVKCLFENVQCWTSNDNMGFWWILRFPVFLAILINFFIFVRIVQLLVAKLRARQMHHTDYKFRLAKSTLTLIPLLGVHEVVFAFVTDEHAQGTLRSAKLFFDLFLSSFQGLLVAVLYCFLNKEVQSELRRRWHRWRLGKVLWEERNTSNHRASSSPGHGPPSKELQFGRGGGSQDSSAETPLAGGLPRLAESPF

In general, EC50 refers to the concentration needed to bring the measured effect to its halfway point. As to `CC(C)C[C@H](NC(=O)[C@H](Cc1ccc(O)cc1)NC(=O)[C@H](CCCNC(=N)N)NC(=O)[C@H](CO)NC(=O)[C@H](Cc1ccc(O)cc1)NC(=O)[C@H](CC(=O)O)NC(=O)[C@H](CO)NC(=O)[C@@H](NC(=O)[C@H](Cc1ccccc1)NC(=O)[C@@H](NC(=O)CNC(=O)[C@H](CCC(N)=O)NC(=O)[C@H](CO)NC(=O)[C@@H](N)Cc1c[nH]cn1)[C@@H](C)O)[C@@H](C)O)C(=O)N[C@@H](CC(=O)O)C(=O)N[C@@H](C)C(=O)N[C@@H](CCCNC(=N)N)C(=O)N[C@@H](CCCNC(=N)N)C(=O)N[C@@H](C)C(=O)N[C@@H](CCC(N)=O)C(=O)N[C@@H](CC(=O)O)C(=O)N[C@@H](Cc1ccccc1)C(=O)N[C@H](C(=O)N[C@@H](CCCCNC(=O)CC[C@H](NC(=O)CC[C@H](NC(=O)COCCOCCNC(=O)COCCOCCNC(=O)CC[C@H](NC(=O)CCCCCCCCCCCCCCC(=O)O)C(=O)O)C(=O)O)C(=O)O)C(=O)N[C@@H](Cc1c[nH]c2ccccc12)C(=O)N[C@@H](CC(C)C)C(=O)N[C@@H](CC(C)C)C(=O)N[C@@H](CO)C(=O)N[C@H](C(=O)O)[C@@H](C)O)C(C)C` [Example 84, N^ε24-[(4S)-4-carboxy-4-[[(4S)-4-carboxy-4-[[2-[2-[2-[[2-[2-[2-[[(4S)-4-carboxy-4-(15-carboxypentadecanoylamino)butanoyl]amino]ethoxy]ethoxy]acetyl]amino]ethoxy]ethoxy]acetyl]amino]butanoyl]amino]butanoyl]-[Arg12,Ala16,Lys24,Leu27,Ser28]-Glucagon] (H-HSQGTFTSDYSRYLDARRAQDFVK([γGlu-γGlu-AEEA-AEEA-γGlu-C16 diacid])WLLST-OH), on glucagon receptor, the response was half-maximal at 0.022 nM (EC50). Besides, the “Chemical stability [Purity loss/14 days 37 C.]” value in series [1] is reported as 10.7%.

`CC(C)C[C@H](NC(=O)[C@H](CC(C)C)NC(=O)[C@H](Cc1c[nH]c2ccccc12)NC(=O)[C@H](CCCCNC(=O)CC[C@H](NC(=O)CC[C@H](NC(=O)COCCOCCNC(=O)COCCOCCNC(=O)CC[C@H](NC(=O)CCCCCCCCCCCCCCC(=O)O)C(=O)O)C(=O)O)C(=O)O)NC(=O)[C@@H](NC(=O)[C@H](Cc1ccccc1)NC(=O)[C@H](CC(=O)O)NC(=O)[C@H](CCC(N)=O)NC(=O)[C@H](C)NC(=O)[C@H](CCCNC(=N)N)NC(=O)[C@H](CCCNC(=N)N)NC(=O)[C@H](CC(C)C)NC(=O)[C@H](CC(=O)O)NC(=O)[C@H](CC(C)C)NC(=O)[C@H](Cc1ccc(O)cc1)NC(=O)[C@H](CCCNC(=N)N)NC(=O)[C@H](CO)NC(=O)[C@H](Cc1ccc(O)cc1)NC(=O)[C@H](CC(=O)O)NC(=O)[C@H](CO)NC(=O)[C@@H](NC(=O)[C@H](Cc1ccccc1)NC(=O)[C@@H](NC(=O)CNC(=O)[C@H](CCC(N)=O)NC(=O)[C@H](CO)NC(=O)[C@@H](N)Cc1c[nH]cn1)[C@@H](C)O)[C@@H](C)O)C(C)C)C(=O)NCC(=O)N[C@H](C(=O)O)[C@@H](C)O` [Example 90, N^ε24-[(4S)-4-carboxy-4-[[(4S)-4-carboxy-4-[[2-[2-[2-[[2-[2-[2-[[(4S)-4-carboxy-4-(15-carboxypentadecanoylamino)butanoyl]amino]ethoxy]ethoxy]acetyl]amino]ethoxy]ethoxy]acetyl]amino]butanoyl]amino]butanoyl]-[Arg12,Leu16,Lys24,Leu27,Gly28]-Glucagon] (H-HSQGTFTSDYSRYLDLRRAQDFVK([γGlu-γGlu-AEEA-AEEA-γGlu-C16 diacid])WLLGT-OH): at glucagon receptor, the EC50 was found to be 0.09 nM. Also, in series [1], the “Chemical stability [Purity loss/14 days 37 C.]” value was determined as 5.4%.

`CC(C)C[C@H](NC(=O)[C@H](CC(C)C)NC(=O)[C@H](Cc1c[nH]c2ccccc12)NC(=O)[C@H](CCCCNC(=O)CC[C@H](NC(=O)CC[C@H](NC(=O)COCCOCCNC(=O)COCCOCCNC(=O)CC[C@H](NC(=O)CCCCCCCCCCCCCCC(=O)O)C(=O)O)C(=O)O)C(=O)O)NC(=O)[C@@H](NC(=O)[C@H](Cc1ccccc1)NC(=O)[C@H](CC(=O)O)NC(=O)[C@H](CCC(N)=O)NC(=O)[C@H](C)NC(=O)[C@H](CCCNC(=N)N)NC(=O)[C@H](CCCNC(=N)N)NC(=O)[C@H](CC(C)C)NC(=O)[C@H](CC(=O)O)NC(=O)[C@H](CC(C)C)NC(=O)[C@H](Cc1ccc(O)cc1)NC(=O)[C@H](CCCNC(=N)N)NC(=O)[C@H](CO)NC(=O)[C@H](Cc1ccc(O)cc1)NC(=O)[C@H](CC(=O)O)NC(=O)[C@H](CO)NC(=O)[C@@H](NC(=O)[C@H](Cc1ccccc1)NC(=O)[C@@H](NC(=O)CNC(=O)[C@H](CCC(N)=O)NC(=O)[C@H](CO)NC(=O)[C@@H](N)Cc1c[nH]cn1)[C@@H](C)O)[C@@H](C)O)C(C)C)C(=O)N[C@@H](C)C(=O)N[C@H](C(=O)O)[C@@H](C)O` [Example 89, N^ε24-[(4S)-4-carboxy-4-[[(4S)-4-carboxy-4-[[2-[2-[2-[[2-[2-[2-[[(4S)-4-carboxy-4-(15-carboxypentadecanoylamino)butanoyl]amino]ethoxy]ethoxy]acetyl]amino]ethoxy]ethoxy]acetyl]amino]butanoyl]amino]butanoyl]-[Arg12,Leu16,Lys24,Leu27,Ala28]-Glucagon] (H-HSQGTFTSDYSRYLDLRRAQDFVK([γGlu-γGlu-AEEA-AEEA-γGlu-C16 diacid])WLLAT-OH) registered a concentration giving a half-maximal response (EC50) on glucagon receptor of 0.064 nM. For the same molecule, the “Chemical stability [Purity loss/14 days 37 C.]” value in series [1] amounted to 6.8%.

For the molecule `CC(C)C[C@H](NC(=O)[C@H](Cc1ccc(O)cc1)NC(=O)[C@H](CCCCN)NC(=O)[C@H](CO)NC(=O)[C@H](Cc1ccc(O)cc1)NC(=O)[C@H](CC(=O)O)NC(=O)[C@H](CO)NC(=O)[C@@H](NC(=O)[C@H](Cc1ccccc1)NC(=O)[C@@H](NC(=O)CNC(=O)[C@H](Cc1c[nH]cn1)NC(=O)[C@H](CO)NC(=O)[C@@H](N)Cc1c[nH]cn1)[C@@H](C)O)[C@@H](C)O)C(=O)N[C@@H](CC(=O)O)C(=O)N[C@@H](CCC(=O)O)C(=O)N[C@@H](CCCNC(=N)N)C(=O)N[C@@H](CCCNC(=N)N)C(=O)N[C@@H](C)C(=O)N[C@@H](CCCCN)C(=O)N[C@@H](CC(=O)O)C(=O)N[C@@H](Cc1ccccc1)C(=O)N[C@H](C(=O)N[C@@H](CCCCNC(=O)CC[C@H](NC(=O)CC[C@H](NC(=O)COCCOCCNC(=O)COCCOCCNC(=O)CC[C@H](NC(=O)CCCCCCCCCCCCCCCCC(=O)O)C(=O)O)C(=O)O)C(=O)O)C(=O)N[C@@H](Cc1c[nH]c2ccccc12)C(=O)N[C@@H](CC(C)C)C(=O)N[C@@H](CC(C)C)C(=O)N[C@@H](CO)C(=O)N[C@H](C(=O)O)[C@@H](C)O)C(C)C` [Example 4, N^ε24-[(4S)-4-carboxy-4-[[(4S)-4-carboxy-4-[[2-[2-[2-[[2-[2-[2-[[(4S)-4-carboxy-4-(17-carboxyheptadecanoylamino)butanoyl]amino]ethoxy]ethoxy]acetyl]amino]ethoxy]ethoxy]acetyl]amino]butanoyl]amino]butanoyl]-[His^3,Glu^16,Lys^20,Lys^24,Leu^27,Ser^28]-Glucagon] (H-HSHGTFTSDYSKYLDERRAKDFVK([γGlu-γGlu-AEEA-AEEA-γGlu-C18 diacid])WLLST-OH), the EC50 on glucagon receptor was 0.237 nM. In addition, the “Chemical stability [Purity loss/14 days 37 C.]” value in series [1] is reported as 7.5%.

For the molecule `CC(C)C[C@H](NC(=O)[C@H](Cc1c[nH]c2ccccc12)NC(=O)[C@H](CCCCNC(=O)CC[C@H](NC(=O)CC[C@H](NC(=O)COCCOCCNC(=O)COCCOCCNC(=O)CC[C@H](NC(=O)CCCCCCCCCCCCCCCCC(=O)O)C(=O)O)C(=O)O)C(=O)O)NC(=O)[C@@H](NC(=O)[C@H](Cc1ccccc1)NC(=O)[C@H](CC(=O)O)NC(=O)[C@H](CCC(N)=O)NC(=O)[C@H](C)NC(=O)[C@H](CCCNC(=N)N)NC(=O)[C@H](CCCNC(=N)N)NC(=O)[C@@H](NC(=O)[C@H](CCC(=O)O)NC(=O)[C@H](CC(C)C)NC(=O)[C@H](Cc1ccc(O)cc1)NC(=O)[C@H](CCCCN)NC(=O)[C@H](CO)NC(=O)[C@H](Cc1ccc(O)cc1)NC(=O)[C@H](CC(=O)O)NC(=O)[C@H](CO)NC(=O)[C@@H](NC(=O)[C@H](Cc1ccccc1)NC(=O)[C@@H](NC(=O)CNC(=O)[C@H](Cc1c[nH]cn1)NC(=O)[C@H](CO)NC(=O)[C@@H](N)Cc1c[nH]cn1)[C@@H](C)O)[C@@H](C)O)[C@@H](C)O)C(C)C)C(=O)N[C@@H](CC(C)C)C(=O)N[C@@H](CC(N)=O)C(=O)N[C@H](C(=O)O)[C@@H](C)O` [Example 9, N^ε24-[(4S)-4-carboxy-4-[[(4S)-4-carboxy-4-[[2-[2-[2-[[2-[2-[2-[[(4S)-4-carboxy-4-(17-carboxyheptadecanoylamino)butanoyl]amino]ethoxy]ethoxy]acetyl]amino]ethoxy]ethoxy]acetyl]amino]butanoyl]amino]butanoyl]-[His^3,Glu^15,Thr^16,Lys^24,Leu^27]-Glucagon] (H-HSHGTFTSDYSKYLETRRAQDFVK([γGlu-γGlu-AEEA-AEEA-γGlu-C18 diacid])WLLNT-OH), on glucagon receptor, the EC50 came to 0.036 nM. In addition, the “Chemical stability [Purity loss/14 days 37 C.]” value in series [1] was found to be 10%.

With `CC(C)C[C@H](NC(=O)[C@H](Cc1ccc(O)cc1)NC(=O)[C@H](CCCCN)NC(=O)[C@H](CO)NC(=O)[C@H](Cc1ccc(O)cc1)NC(=O)[C@H](CC(=O)O)NC(=O)[C@H](CO)NC(=O)[C@@H](NC(=O)[C@H](Cc1ccccc1)NC(=O)[C@@H](NC(=O)CNC(=O)[C@H](CCC(N)=O)NC(=O)[C@H](CO)NC(=O)[C@@H](N)Cc1c[nH]cn1)[C@@H](C)O)[C@@H](C)O)C(=O)N[C@@H](CC(=O)O)C(=O)N[C@@H](C)C(=O)N[C@@H](CCCNC(=N)N)C(=O)N[C@@H](CCCNC(=N)N)C(=O)N[C@@H](C)C(=O)N[C@@H](CCC(N)=O)C(=O)N[C@@H](CC(=O)O)C(=O)N[C@@H](Cc1ccccc1)C(=O)N[C@H](C(=O)N[C@@H](CCCCNC(=O)CC[C@H](NC(=O)CC[C@H](NC(=O)COCCOCCNC(=O)COCCOCCNC(=O)CC[C@H](NC(=O)CCCCCCCCCCCCCCC(=O)O)C(=O)O)C(=O)O)C(=O)O)C(=O)N[C@@H](Cc1c[nH]c2ccccc12)C(=O)N[C@@H](CC(C)C)C(=O)N[C@@H](CC(C)C)C(=O)N[C@@H](CO)C(=O)N[C@H](C(=O)O)[C@@H](C)O)C(C)C` [Example 83, N^ε24-[(4S)-4-carboxy-4-[[(4S)-4-carboxy-4-[[2-[2-[2-[[2-[2-[2-[[(4S)-4-carboxy-4-(15-carboxypentadecanoylamino)butanoyl]amino]ethoxy]ethoxy]acetyl]amino]ethoxy]ethoxy]acetyl]amino]butanoyl]amino]butanoyl]-[Ala16,Lys24,Leu27,Ser28]-Glucagon], the EC50 at glucagon receptor came to 0.016 nM. In series [1], the “Chemical stability [Purity loss/14 days 37 C.]” value is reported as 10.3%.
